Test results from ChEMBL document CHEMBL1137006, “Optimization of the central linker of dicationic bis-benzimidazole anti-MRSA and anti-VRE agents” (2009).
Values after ≈ are worked out from the molar mass of the structure shown.

How the values were obtained:
Type in all cases: functional
[1] = system: Staphylococcus epidermidis; experiment: Antibacterial activity against methicillin-resistan Staphylococcus epidermidis ATCC 51625 by NCCLS method
Bacillus cereus = experiment: Antibacterial activity against Bacillus cereus ATCC 11778 by NCCLS method
Staphylococcus aureus [2] = experiment: Antibacterial activity against multi-drug resistant Staphylococcus aureus BAA-39 by NCCLS method
Clostridium perfringens = experiment: Antibacterial activity against Clostridium perfringens ATCC 10388 by NCCLS method
Staphylococcus aureus [3] = experiment: Antibacterial activity against methicillin-resistan Staphylococcus aureus ATCC 33591 by NCCLS method
Bacteroides fragilis = experiment: Antibacterial activity against Bacteroides fragilis ATCC 23745 by NCCLS method
[4] = system: Staphylococcus epidermidis; experiment: Antibacterial activity against Staphylococcus epidermidis ATCC 12228 by NCCLS method
Enterococcus faecium = experiment: Antibacterial activity against vancomycin-resistant Enterococcus faecium ATCC 700221 by NCCLS method
Streptococcus pneumoniae = experiment: Antibacterial activity against Streptococcus pneumoniae ATCC 6301 by NCCLS method
Enterococcus faecalis = experiment: Antibacterial activity against vancomycin-resistant Enterococcus faecalis ATCC 51575 by NCCLS method
Bacillus subtilis = experiment: Antibacterial activity against Bacillus subtilis ATCC 23857 by NCCLS method
Staphylococcus aureus [5] = experiment: Antibacterial activity against Staphylococcus aureus ATCC 29213 by NCCLS method

Row | SMILES | MIC [1] | MIC (Bacillus cereus) | MIC (Staphylococcus aureus [2]) | MIC (Clostridium perfringens) | MIC (Staphylococcus aureus [3]) | MIC (Bacteroides fragilis) | MIC [4] | MIC (Enterococcus faecium) | MIC (Streptococcus pneumoniae) | MIC (Enterococcus faecalis) | MIC (Bacillus subtilis) | MIC (Staphylococcus aureus [5])
1 | CC(C)NC(=N)c1ccc2[nH]c(-c3ccc(NS(=O)(=O)c4ccc(-c5nc6cc(C(=N)NC(C)C)ccc6[nH]5)cc4)cc3)nc2c1 | 4 µg/mL (≈ 6.31 µM) | 2 µg/mL (≈ 3.16 µM) | 16 µg/mL (≈ 25.2 µM) | 4 µg/mL (≈ 6.31 µM) | 16 µg/mL (≈ 25.2 µM) | 2 µg/mL (≈ 3.16 µM) | 2 µg/mL (≈ 3.16 µM) | 4 µg/mL (≈ 6.31 µM) | 1 µg/mL (≈ 1.58 µM) | 2 µg/mL (≈ 3.16 µM) | 2 µg/mL (≈ 3.16 µM) | > 32 µg/mL
2 | CC(C)NC(=N)c1ccc2[nH]c(-c3ccc(-c4ccc(-c5ccc(-c6nc7cc(C(=N)NC(C)C)ccc7[nH]6)cc5)o4)cc3)nc2c1 | 2 µg/mL (≈ 3.22 µM) | 2 µg/mL (≈ 3.22 µM) | 32 µg/mL (≈ 51.5 µM) | 1 µg/mL (≈ 1.61 µM) | 2 µg/mL (≈ 3.22 µM) | > 32 µg/mL | 4 µg/mL (≈ 6.44 µM) | 2 µg/mL (≈ 3.22 µM) | 0.12 µg/mL (≈ 0.193 µM) | > 32 µg/mL | 2 µg/mL (≈ 3.22 µM) | > 32 µg/mL
3 | CC(C)NC(=N)c1ccc2[nH]c(-c3ccc(N(C)c4ccc(-c5nc6cc(C(=N)NC(C)C)ccc6[nH]5)cc4)cc3)nc2c1 | 0.12 µg/mL (≈ 0.206 µM) | 0.25 µg/mL (≈ 0.428 µM) | 0.5 µg/mL (≈ 0.857 µM) | 1 µg/mL (≈ 1.71 µM) | 0.5 µg/mL (≈ 0.857 µM) | > 32 µg/mL | 0.12 µg/mL (≈ 0.206 µM) | ≤ 0.06 µg/mL | 0.12 µg/mL (≈ 0.206 µM) | 0.25 µg/mL (≈ 0.428 µM) | 0.12 µg/mL (≈ 0.206 µM) | 1 µg/mL (≈ 1.71 µM)
4 | CC(C)NC(=N)c1ccc2[nH]c(-c3ccc(Oc4ccc(-c5nc6cc(C(=N)NC(C)C)ccc6[nH]5)cc4)cc3)nc2c1 | < 0.06 µg/mL | < 0.06 µg/mL | 0.5 µg/mL (≈ 0.876 µM) | 0.5 µg/mL (≈ 0.876 µM) | 0.12 µg/mL (≈ 0.21 µM) | 2 µg/mL (≈ 3.5 µM) | < 0.06 µg/mL | < 0.06 µg/mL | < 0.06 µg/mL | 0.12 µg/mL (≈ 0.21 µM) | < 0.06 µg/mL | 0.25 µg/mL (≈ 0.438 µM)
5 | CC(C)NC(=N)c1ccc2[nH]c(-c3ccc(Sc4ccc(-c5nc6cc(C(=N)NC(C)C)ccc6[nH]5)cc4)cc3)nc2c1 | 16 µg/mL (≈ 27.3 µM) | 8 µg/mL (≈ 13.6 µM) | 32 µg/mL (≈ 54.5 µM) | > 32 µg/mL | 16 µg/mL (≈ 27.3 µM) | > 32 µg/mL | 8 µg/mL (≈ 13.6 µM) | 16 µg/mL (≈ 27.3 µM) | > 32 µg/mL | > 32 µg/mL | 16 µg/mL (≈ 27.3 µM) | > 32 µg/mL
6 | CC(C)NC(=N)c1ccc2[nH]c(-c3ccc4c(c3)Cc3ccc(-c5nc6cc(C(=N)NC(C)C)ccc6[nH]5)cc3S4)nc2c1 | 0.5 µg/mL (≈ 0.835 µM) | 1 µg/mL (≈ 1.67 µM) | 8 µg/mL (≈ 13.4 µM) | 0.5 µg/mL (≈ 0.835 µM) | 2 µg/mL (≈ 3.34 µM) | > 32 µg/mL | 2 µg/mL (≈ 3.34 µM) | 0.5 µg/mL (≈ 0.835 µM) | 0.12 µg/mL (≈ 0.2 µM) | 16 µg/mL (≈ 26.7 µM) | 1 µg/mL (≈ 1.67 µM) | 16 µg/mL (≈ 26.7 µM)
7 | CC1(C)S[C@@H]2[C@H](NC(=O)Cc3ccccc3)C(=O)N2[C@H]1C(=O)O [PENICILLIN G] | 32 µg/mL (≈ 95.7 µM) | > 4 µg/mL | > 32 µg/mL | ≤ 0.12 µg/mL | > 32 µg/mL | 4 µg/mL (≈ 12 µM) | 32 µg/mL (≈ 95.7 µM) | > 32 µg/mL | < 0.06 µg/mL | 4 µg/mL (≈ 12 µM) | < 0.06 µg/mL | 1 µg/mL (≈ 2.99 µM)
8 | CC(C)NC(=N)c1ccc2[nH]c(-c3ccc(Nc4ccc(-c5nc6cc(C(=N)NC(C)C)ccc6[nH]5)cc4)cc3)nc2c1 | 0.25 µg/mL (≈ 0.439 µM) | 0.12 µg/mL (≈ 0.211 µM) | 0.25 µg/mL (≈ 0.439 µM) | 2 µg/mL (≈ 3.51 µM) | 0.25 µg/mL (≈ 0.439 µM) | > 32 µg/mL | 0.12 µg/mL (≈ 0.211 µM) | 0.12 µg/mL (≈ 0.211 µM) | 0.12 µg/mL (≈ 0.211 µM) | 0.25 µg/mL (≈ 0.439 µM) | 0.12 µg/mL (≈ 0.211 µM) | 0.25 µg/mL (≈ 0.439 µM)
9 | CC(C)NC(=N)c1ccc2[nH]c(-c3ccc([C@@H]4C[C@H]4c4ccc(-c5nc6cc(C(=N)NC(C)C)ccc6[nH]5)cc4)cc3)nc2c1 | 0.12 µg/mL (≈ 0.202 µM) | 0.12 µg/mL (≈ 0.202 µM) | 0.5 µg/mL (≈ 0.841 µM) | 0.25 µg/mL (≈ 0.42 µM) | 0.25 µg/mL (≈ 0.42 µM) | 0.5 µg/mL (≈ 0.841 µM) | ≤ 0.06 µg/mL | 0.12 µg/mL (≈ 0.202 µM) | ≤ 0.06 µg/mL | 0.5 µg/mL (≈ 0.841 µM) | 0.12 µg/mL (≈ 0.202 µM) | 1 µg/mL (≈ 1.68 µM)
10 | CC(C)NC(=N)c1ccc2[nH]c(-c3ccc(C#Cc4ccc(-c5nc6cc(C(=N)NC(C)C)ccc6[nH]5)cc4)cc3)nc2c1 | 0.25 µg/mL (≈ 0.432 µM) | 0.5 µg/mL (≈ 0.864 µM) | 4 µg/mL (≈ 6.91 µM) | 4 µg/mL (≈ 6.91 µM) | 2 µg/mL (≈ 3.46 µM) | > 32 µg/mL | 0.12 µg/mL (≈ 0.207 µM) | 0.5 µg/mL (≈ 0.864 µM) |  | 32 µg/mL (≈ 55.3 µM) | 4 µg/mL (≈ 6.91 µM) | 2 µg/mL (≈ 3.46 µM)
11 | CC(C)NC(=N)c1ccc2[nH]c(-c3ccc(/C=C/c4ccc(-c5nc6cc(C(=N)NC(C)C)ccc6[nH]5)cc4)cc3)nc2c1 | 0.25 µg/mL (≈ 0.43 µM) | 0.25 µg/mL (≈ 0.43 µM) | 1 µg/mL (≈ 1.72 µM) | 0.5 µg/mL (≈ 0.861 µM) | 0.5 µg/mL (≈ 0.861 µM) | 0.5 µg/mL (≈ 0.861 µM) | 0.12 µg/mL (≈ 0.207 µM) | 0.25 µg/mL (≈ 0.43 µM) | 0.25 µg/mL (≈ 0.43 µM) | 0.5 µg/mL (≈ 0.861 µM) | 0.25 µg/mL (≈ 0.43 µM) | 1 µg/mL (≈ 1.72 µM)
12 | CN[C@H](CC(C)C)C(=O)N[C@H]1C(=O)N[C@@H](CC(N)=O)C(=O)N[C@H]2C(=O)N[C@H]3C(=O)N[C@H](C(=O)N[C@H](C(=O)O)c4cc(O)cc(O)c4-c4cc3ccc4O)[C@H](O)c3ccc(c(Cl)c3)Oc3cc2cc(c3O[C@@H]2O[C@H](CO)[C@@H](O)[C@H](O)[C@H]2O[C@H]2C[C@](C)(N)[C@H](O)[C@H](C)O2)Oc2ccc(cc2Cl)[C@H]1O [VANCOMYCIN] |  |  |  | 0.12 µg/mL (≈ 0.0828 µM) |  | 4 µg/mL (≈ 2.76 µM) |  | > 64 µg/mL | 1 µg/mL (≈ 0.69 µM) | > 32 µg/mL | 0.12 µg/mL (≈ 0.0828 µM) | 
13 | CC(C)NC(=N)c1ccc2[nH]c(-c3ccc(Cc4ccc(-c5nc6cc(C(=N)NC(C)C)ccc6[nH]5)cc4)cc3)nc2c1 | 0.25 µg/mL (≈ 0.44 µM) | 0.25 µg/mL (≈ 0.44 µM) | 1 µg/mL (≈ 1.76 µM) | 1 µg/mL (≈ 1.76 µM) | 0.25 µg/mL (≈ 0.44 µM) | 1 µg/mL (≈ 1.76 µM) | 0.12 µg/mL (≈ 0.211 µM) | 0.12 µg/mL (≈ 0.211 µM) | < 0.06 µg/mL | 0.25 µg/mL (≈ 0.44 µM) | 0.25 µg/mL (≈ 0.44 µM) | 1 µg/mL (≈ 1.76 µM)
14 | CC(C)NC(=N)c1ccc2[nH]c(-c3ccc(CCc4ccc(-c5nc6cc(C(=N)NC(C)C)ccc6[nH]5)cc4)cc3)nc2c1 | 0.12 µg/mL (≈ 0.206 µM) | 0.12 µg/mL (≈ 0.206 µM) | 0.5 µg/mL (≈ 0.858 µM) | 0.25 µg/mL (≈ 0.429 µM) | 0.25 µg/mL (≈ 0.429 µM) | 0.5 µg/mL (≈ 0.858 µM) | < 0.06 µg/mL | 0.12 µg/mL (≈ 0.206 µM) | < 0.06 µg/mL | 0.25 µg/mL (≈ 0.429 µM) | 0.12 µg/mL (≈ 0.206 µM) | 0.25 µg/mL (≈ 0.429 µM)
15 | CC(C)NC(=N)c1ccc2[nH]c(-c3ccc(N(c4ccccc4)c4ccc(-c5nc6cc(C(=N)NC(C)C)ccc6[nH]5)cc4)cc3)nc2c1 | 0.25 µg/mL (≈ 0.387 µM) | 0.12 µg/mL (≈ 0.186 µM) | 0.5 µg/mL (≈ 0.774 µM) | 1 µg/mL (≈ 1.55 µM) | 0.5 µg/mL (≈ 0.774 µM) | 4 µg/mL (≈ 6.19 µM) | 0.25 µg/mL (≈ 0.387 µM) | 0.12 µg/mL (≈ 0.186 µM) | 0.12 µg/mL (≈ 0.186 µM) | 0.5 µg/mL (≈ 0.774 µM) | ≤ 0.06 µg/mL | 1 µg/mL (≈ 1.55 µM)
16 | O=C(O)c1cn(C2CC2)c2cc(N3CCNCC3)c(F)cc2c1=O [CIPROFLOXACIN] | ≤ 0.12 µg/mL | ≤ 0.12 µg/mL | 8 µg/mL (≈ 24.1 µM) |  | ≤ 0.12 µg/mL | 0.5 µg/mL (≈ 1.51 µM) | ≤ 0.12 µg/mL | > 32 µg/mL |  | 0.5 µg/mL (≈ 1.51 µM) | ≤ 0.12 µg/mL | 0.5 µg/mL (≈ 1.51 µM)
17 | CC(C)NC(=N)c1ccc2[nH]c(-c3ccc(COc4ccc(-c5nc6cc(C(=N)NC(C)C)ccc6[nH]5)cc4)cc3)nc2c1 | 0.25 µg/mL (≈ 0.428 µM) | 0.12 µg/mL (≈ 0.205 µM) | 4 µg/mL (≈ 6.84 µM) | 16 µg/mL (≈ 27.4 µM) | 0.5 µg/mL (≈ 0.855 µM) | 32 µg/mL (≈ 54.7 µM) | ≤ 0.06 µg/mL | 0.12 µg/mL (≈ 0.205 µM) | ≤ 0.06 µg/mL | 1 µg/mL (≈ 1.71 µM) | 0.12 µg/mL (≈ 0.205 µM) | 1 µg/mL (≈ 1.71 µM)
